Laboratory results as given in patent US7244762B2, “Antitumoral d-homoestra-1,3,5 (10)-trien-3-yl 2-substituted sulfamates” (Sterix Limited, priority 2003, dated 2007).

Tests used:
[1] = target: T1, tubulin (microtubular protein purified from pig brains) (Sus scrofa, UniProt P02550+P02554); assay: Inhibition of tubulin polymerization (turbidimetry at 340 nm); assay type: biochemical; settings: pig brain microtubular protein 1 mg/ml, 0.25 mmol GTP, 37° C.
T1 construct: microtubular protein was purified from pig brains via cydic assembling/disassembling; from tissue; host or cells: pig brain
Method: The in-vitro testing of the tubulin polymerization influence was performed as follows:
According to Shelanski et al. (Shelanski et al. Proc. Natl. Acad. Sci. USA 1973, 70, 765-8), microtubular protein was purified from pig brains via cydic assembling/disassembling. The buffer system used had the following composition: 20 mmol of PIPES (1,4-piperazine-diethane-sulfonic acid, pKa 6.8), 80 mmol of NaCl, 0.5 mmol of MgCl2, 1 mmol of EGTA [ethylene glycol-bis-(2-aminoethylene)-tetraacetic acid].
For active ingredient testing, protein concentrations of 1 mg/ml (about 10^−5 mmol of tubulin) were used. The determination of protein was carried out according to the Lowry Method (Lowry et al. J. Biol. Chem. 1951, 193, 265-75) with bovine serum albumin as a standard. The assembling of microtubuli was carried out in the presence of 0.25 mmol of GTP and heating the samples to 37° C.
The microtubulus formation was examined by means of turbidimetry at a wavelength of 340 nm.
Testing of the active ingredients was carried out by their addition at the beginning of the assembling or in the state of equilibrium. […] To monitor action and to evaluate the measured turbidity values, a transmission electron microscopic study (CEM 902 A, Zeiss/Oberkochen) of the assemblates was always performed after negative staining with 1% aqueous uranyl acetate.

[2] = test system: HMVEC human primary dermal microvascular endothelial cells; assay: Inhibition of cell proliferation, crystal violet staining; assay type: cell-based; settings: 4 days incubation
Method: (§1) Cell cultures of the following cell lines were prepared in 96-well microtiter plates: • 1. MaTu/ADR multidrug-resistant human breast tumor cells (Epo GmbH Berlin), 5000 cells/well. • 2. HCT116 human colon tumor cells (ATCC CCL-247), 3000 cells/well. • 3. NCl-H460 human non-small-cell lung cancer cells (ATCC HTB-177), 3000 cells/well. • 4. DU145 human prostate tumor cells (ATCC HTB-81), 5000 cells/well. • 5. HMVEC human primary dermal microvascular endothelial cells, 7500 cells/well.
(§2) After 24 hours of incubation in a cell culture incubator at 37° C., the cells of a microtiter plate were stained with crystal violet (reference plate), while the cells in the test plates were incubated for 4 days with the test substances in the concentrations […], as well as with the DMSO solvent by itself (solvent control). The cell proliferation was determined by staining cells with crystal violet. The extinction of the crystal violet was determined by photometry at 595 nm. The percentage of the change in the cell number in the test plates was determined after the extinction values were normalized to the reference plate (0%) and to the solvent control (100%). The semi-maximal inhibition of the cell growth (IC50) was determined as the substance concentration, in which 50% of the cell number of the solvent controls were present.

[3] = test system: DU145 human prostate tumor cells; assay: as above; assay type: cell-based; settings: DU145, 4 days incubation
Method: as §1, §2

[4] = test system: MaTu/ADR multidrug-resistant human breast tumor cells; assay: as above; assay type: cell-based; settings: 4 days incubation
Method: as §1, §2

[5] = test system: HCT116 human colon tumor cells; assay: as above; assay type: cell-based; settings: HCT116, 4 days incubation
Method: as §1, §2

[6] = test system: NCl-H460 human non-small-cell lung cancer cells; assay: as above; assay type: cell-based; settings: NCl-H460, 4 days incubation
Method: as §1, §2

T1 sequence (P02550 whole entry): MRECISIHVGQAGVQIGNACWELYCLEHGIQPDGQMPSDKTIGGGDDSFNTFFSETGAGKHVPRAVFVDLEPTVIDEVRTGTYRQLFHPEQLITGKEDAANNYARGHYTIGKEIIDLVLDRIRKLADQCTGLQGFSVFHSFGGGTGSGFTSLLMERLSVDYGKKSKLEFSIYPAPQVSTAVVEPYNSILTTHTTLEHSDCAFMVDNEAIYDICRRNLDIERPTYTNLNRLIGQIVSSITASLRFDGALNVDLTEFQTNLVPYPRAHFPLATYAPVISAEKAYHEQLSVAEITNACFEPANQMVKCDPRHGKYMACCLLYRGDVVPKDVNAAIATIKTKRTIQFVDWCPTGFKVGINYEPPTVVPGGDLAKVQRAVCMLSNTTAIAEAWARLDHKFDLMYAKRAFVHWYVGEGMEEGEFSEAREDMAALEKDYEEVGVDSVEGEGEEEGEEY
T1 sequence (P02554 whole entry): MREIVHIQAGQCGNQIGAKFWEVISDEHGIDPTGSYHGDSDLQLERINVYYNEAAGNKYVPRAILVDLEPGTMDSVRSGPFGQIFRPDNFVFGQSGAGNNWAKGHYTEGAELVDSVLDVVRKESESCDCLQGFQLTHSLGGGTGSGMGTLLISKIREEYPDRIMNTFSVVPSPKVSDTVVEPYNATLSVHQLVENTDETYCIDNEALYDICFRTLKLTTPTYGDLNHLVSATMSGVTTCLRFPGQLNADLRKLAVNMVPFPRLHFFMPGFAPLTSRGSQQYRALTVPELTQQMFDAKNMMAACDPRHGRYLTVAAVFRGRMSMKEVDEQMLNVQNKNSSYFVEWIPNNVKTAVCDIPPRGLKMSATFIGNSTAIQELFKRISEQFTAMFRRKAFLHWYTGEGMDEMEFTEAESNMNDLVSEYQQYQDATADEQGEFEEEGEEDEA

SMILES | IC50 [1] [µM] | IC50 [2] [µM] | IC50 [3] [µM] | IC50 [4] [µM] | IC50 [5] [µM] | IC50 [6] [µM] | IC50 ([2]; Homo sapiens, 96 h) [µM] | IC50 ([3]; Homo sapiens, DU-145, 96 h) [µM] | IC50 ([4]; Homo sapiens, 96 h) [µM] | IC50 ([5]; Homo sapiens, HCT-116, 96 h) [µM] | IC50 ([6]; Homo sapiens, 96 h) [µM]
COc1cc2c(cc1O)CC[C@@H]1[C@@H]2CC[C@]2(C)[C@@H](O)CC[C@@H]12 [2-Methoxyestradiol, reference compound] | 2.7 | 2.2 | 1.9 | 0.2 | 1.1 | 1.8 |  |  |  |  | 
COc1cc2c(cc1OS(N)(=O)=O)CC[C@@H]1[C@@H]2CC[C@]2(C)[C@@H](OS(N)(=O)=O)CCC[C@@H]12 [(4), 2-Methoxy-17a-homoestra-1,3,5(10)-triene-3,17aβ-diyl Bissulfamate] |  | 0.6 | 2.8 | 0.8 | 1.8 | 1.8 |  |  |  |  | 
COc1cc2c(cc1OS(N)(=O)=O)CC[C@@H]1[C@@H]2CC[C@]2(C)CCCC[C@@H]12 [(2), 2-Methoxy-17a-homoestra-1,3,5(10)-trien-3-yl Sulfamate] | 0.95 |  |  |  |  |  | 0.5 | 0.6 | 0.2 | 0.6 | 0.6
COc1cc2c(cc1OS(N)(=O)=O)CC[C@@H]1[C@@H]2CC[C@]2(C)C(=O)CCC[C@@H]12 [(1), 2-Methoxy-17a-oxo-17a-homoestra-1,3,5(10)-trien-3-yl Sulfamate] |  | 0.22 | 0.5 | < 0.1 | 0.18 | 0.18 |  |  |  |  | 
CC(=O)O[C@H]1C(=O)[C@@]2(C)[C@H]([C@H](OC(=O)c3ccccc3)[C@]3(O)C[C@H](OC(=O)[C@H](O)[C@@H](NC(=O)c4ccccc4)c4ccccc4)C(C)=C1C3(C)C)[C@]1(OC(C)=O)CO[C@@H]1C[C@@H]2O [Taxol, reference compound] |  |  |  |  |  |  | 0.004 | 0.004 | 0.4 | 0.004 | 0.004
